How the values were obtained:
PI3K = conditions: read-out: IC50 (PI3K inhibitor); cited from earlier work
[1] = test system: hPSCs (H9, H7, hiPSC-1, hiPSC-2); experiment: Annexin V/7-AAD staining (apoptosis); type: cell-based, human; conditions: pretreatment; hPSCs with Dox-induced SIRT2 OE
SIRT3 = biological target: T1, SIRT3 (Homo sapiens, UniProt Q9NTG7); conditions: cited from earlier work
T1 sequence (Q9NTG7 1-399): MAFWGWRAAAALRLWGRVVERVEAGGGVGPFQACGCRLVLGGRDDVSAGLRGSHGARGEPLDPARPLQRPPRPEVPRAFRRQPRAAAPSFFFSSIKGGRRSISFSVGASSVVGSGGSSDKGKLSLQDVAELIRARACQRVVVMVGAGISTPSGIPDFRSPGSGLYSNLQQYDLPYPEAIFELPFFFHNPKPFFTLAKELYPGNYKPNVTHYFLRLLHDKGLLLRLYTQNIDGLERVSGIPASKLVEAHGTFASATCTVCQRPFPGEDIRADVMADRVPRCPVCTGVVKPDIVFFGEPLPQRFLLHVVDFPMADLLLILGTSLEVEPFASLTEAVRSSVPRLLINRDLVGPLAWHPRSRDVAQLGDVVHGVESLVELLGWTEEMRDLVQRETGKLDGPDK

[2] = test system: human dermal fibroblasts (hDFs); experiment: Live cell metabolic analysis (Seahorse XF, OCR/ECAR) in fibroblasts; type: cell-based; conditions: 0.2 mM; Y4+SIRT2 KD fibroblasts
Experimental: Oxygen consumption rate (OCR) and extracellular acidification rates (ECAR) were measured using the XFp8 or XF24 analyzer (Seahorse Bioscience, MA) according to the manufacturer's instruction. Briefly, cells were plated into wells of an XF cell culture microplate and incubated at 37° C. in a CO2 incubator for 24 h to ensure attachment. The assay was started after cells were equilibrated for 1 h in XF assay medium supplemented with 10 mM glucose, 5 mM sodium pyruvate and 2 mM glutamine in a non-CO2 incubator. Mitochondrial activity between hDFs and hESCs/parental hDFs and iPSCs were monitored through sequential injections of 1 μM oligomycin, […] FCCP and 1 μM rotenone/antimycin A to calculate basal respiration rates (baseline OCR—rotenone/antimycin A OCR), ATP dependent (basal respiration rate—oligomycin OCR), maximum respiration (FCCP OCR— rotenone/antimycin A OCR), and oxidative reserve (maximum respiration rate—basal respiration rate). Glycolytic processes were measured by serial injections of 10 mM glucose, 1 μM oligomycin, and 100 mM 2-deoxyglucose to calculate basal glycolytic rate, glycolytic capacity (in response to oligomycin), and glycolytic reserve (glycolytic capacity—basal rate). Each plotted value was normalized to total protein quantified using a Bradford protein assay (Bio-Rad).

hDFs = experiment: Human iPSC induction, AP-positive colonies; type: cell-based; conditions: 1 mM or higher concentration; fibroblasts
Experimental: Human dermal fibroblasts (hDFs) were cultured in Dulbecco's modified Minimal Essential Medium (DMEM; Invitrogen, Carlsbad, Calif.) supplemented with 2 mM L-glutamine (Invitrogen), 10% fetal bovine serum (FBS; Invitrogen), 100 U/ml penicillin and 100 μg/ml streptomycin (Invitrogen). For iPSC induction, DMEM/F-12 medium supplemented with 2 mM L-glutamine (Invitrogen), 1 mM […] (Invitrogen), 1× non-essential amino acids (NEAA; Invitrogen), 20% knock-out serum replacement (KSR; Invitrogen), 100 U/ml penicillin, 100 μg/ml streptomycin (Invitrogen) and 10 ng/ml basic fibroblast growth factor (bFGF; Invitrogen) was used as the reprogramming medium. Human ESC lines and hiPSC lines were maintained in Essential 8 medium (Invitrogen) using Matrigel® Matrix (Corning Life Sciences, Tewksbury, Mass.) and passaged using 0.5 mM EDTA (Invitrogen) for gentle dissociation.
Human iPSCs were generated using lentiviral particles by inducible lentiviral vectors or STEMCCA vectors to introduce the OSKM factors (Oct4, Sox2, Klf4, and c-Myc) into fibroblasts^49. ES-like colonies formed after 3 weeks of viral infection and the observed ES-like colonies were handpicked and transferred onto mouse feeder cells (MEF)-plated or Matrigel-coated tissue culture plates to generate iPSC lines. iPSC colonies were mechanically picked until iPSC lines were established.

SIRT2 [3] = experiment: SIRT2 expression by qRT-PCR and western blot after pre-miRNA transfection; type: cell-based, human; conditions: fibroblasts transfected with pre-miRNA
Experimental: Samples (50 μg) were loaded onto a 12% SDS-PAGE and separated by electrophoresis followed by transfer onto a piece of Immun-Blot PVDF membrane (Bio-Rad, Hercules, Calif.). After transfer, the membrane was blocked at room temperature with Tris-buffered saline (TBS) containing 0.1% Tween-20 and 5% (w/v) skim milk for 3-5 h and then incubated overnight at 4° C. with primary antibody. The membrane was washed three times with TBS containing 0.05% Tween-20 (TBST) and then incubated for 2 h with the appropriate secondary antibody (Pierce, Rockford, Ill.). After washing twice with TBST and once with TBS, bound antibodies were detected by chemiluminescence using the SuperSignal® West Pico kit (Pierce). […]
Total RNA was extracted from cells by using the Direct-zol RNA purification Kit (Zymo research, Irvine, Calif.) and cDNA was synthesized using the ThermoScript™ RT-PCR system (Invitrogen). For quantitative analysis, qRT-PCR (Bio-Rad) was performed using SsoAdvanced SYBR Green supermix (Bio-Rad) with target genes specific primers. […]

[4] = test system: CDS fragments of SIRT2 (MREs); experiment: Luciferase reporter assay; type: cell-based, human; conditions: 293T cells, psicheck2 SIRT2 CDS fragments
Text: Human SIRT1 or SIRT2 was PCR-amplified from hESCs (H9) or hDFs, respectively, then cloned into the pGEM®-T Easy vector (Promega, Madison, Wis.). The 2A sequence of the Thoseaasigna virus (T2A)-linked EGFP was amplified from pCXLE-EGFP plasmid (#27082; Addgene, Cambridge, Mass.) by […], cloned into the […] vector. The SIRT1 and SIRT2 fragments were then cut off from the corresponding vectors and inserted into the pGEM-T-T2A-EGFP to generate pGEM-T-SIRT1-T2A-EGFP and pGEM-T-SIRT2-T2A-EGFP, respectively. The SIRT1-T2A-EGFP and SIRT2-T2A-EGFP constructs were confirmed by sequencing and then introduced into the EcoRI site of FUW-tetO vector (Addgene), respectively. Human AldoA-Myc constructs, the AldoA fragment was PCR-amplified from hESCs (H9), and then cloned into the pcDNA3.1-Myc/His vector (Invitrogen). For the psicheck2 constructs, the CDS fragments were cloned in downstream of a Renilla luciferase open reading frame. […]
The Promega dual luciferase assay kit was used to perform the luciferase assay according to the manufacturer's instruction. In brief, cell lysates were analyzed for luciferase activity using the dual luciferase system in which two luciferase enzymes, one (from Renilla reniformis) containing the experimental target sequence and another (from firefly) containing the control. […]

SIRT1 = biological target: T2, SIRT1 (Homo sapiens, UniProt Q96EB6); conditions: cited from earlier work
T2 sequence (Q96EB6 1-747): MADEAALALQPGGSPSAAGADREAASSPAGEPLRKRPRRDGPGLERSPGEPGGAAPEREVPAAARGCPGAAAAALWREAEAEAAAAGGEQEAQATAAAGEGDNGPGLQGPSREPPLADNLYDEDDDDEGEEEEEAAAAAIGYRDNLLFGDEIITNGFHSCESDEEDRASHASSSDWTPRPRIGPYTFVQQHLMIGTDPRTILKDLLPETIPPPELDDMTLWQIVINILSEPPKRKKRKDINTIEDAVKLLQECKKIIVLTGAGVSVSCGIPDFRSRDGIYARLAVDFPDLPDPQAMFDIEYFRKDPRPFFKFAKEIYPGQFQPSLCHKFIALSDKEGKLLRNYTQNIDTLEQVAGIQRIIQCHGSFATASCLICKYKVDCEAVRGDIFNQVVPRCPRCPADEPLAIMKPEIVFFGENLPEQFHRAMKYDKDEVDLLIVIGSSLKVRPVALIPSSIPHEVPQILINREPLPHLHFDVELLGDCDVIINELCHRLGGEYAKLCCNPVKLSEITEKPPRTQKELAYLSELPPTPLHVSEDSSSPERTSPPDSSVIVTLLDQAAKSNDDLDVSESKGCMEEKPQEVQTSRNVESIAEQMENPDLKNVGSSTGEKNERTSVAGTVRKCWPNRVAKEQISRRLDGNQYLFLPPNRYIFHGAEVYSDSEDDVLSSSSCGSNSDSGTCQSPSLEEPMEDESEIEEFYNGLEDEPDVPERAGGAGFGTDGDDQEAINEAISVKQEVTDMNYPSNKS

SIRT2 [5] = biological target: T3, SIRT2 (Homo sapiens, UniProt Q8IXJ6); conditions: relative to SIRT1; cited from earlier work
T3 sequence (Q8IXJ6 1-389): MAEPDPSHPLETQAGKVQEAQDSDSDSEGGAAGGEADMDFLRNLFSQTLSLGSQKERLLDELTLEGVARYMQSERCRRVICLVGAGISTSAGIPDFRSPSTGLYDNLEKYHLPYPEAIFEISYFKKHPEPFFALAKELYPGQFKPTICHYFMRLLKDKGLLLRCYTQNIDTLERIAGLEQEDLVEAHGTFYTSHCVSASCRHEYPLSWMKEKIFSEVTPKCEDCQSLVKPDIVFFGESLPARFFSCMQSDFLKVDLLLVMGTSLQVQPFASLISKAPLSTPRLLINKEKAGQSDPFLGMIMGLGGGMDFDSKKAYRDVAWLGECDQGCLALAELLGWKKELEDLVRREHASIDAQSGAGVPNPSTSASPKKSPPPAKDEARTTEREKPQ

## O=c1c(O)c(-c2ccc(O)c(O)c2)oc2cc(O)cc(O)c12 [Quercetin]
PI3K
  IC50: 2.4 to 5.4 µM

## CC(=O)N[C@@H](CS)C(=O)O [N-acetyl-L-Cysteine]
[1]
  SIRT2-induced cell death: rescued

## CN(C)CCCCC(=O)Nc1ccc(NC(=S)NC(=O)c2ccc(C(C)(C)C)cc2)cc1 [Tenovin-6]
SIRT3; purified human SIRT3 in vitro, read-out: IC50 protein deacetylase activity of SIRT3
  IC50: 67 µM

## O=CC[C@@H](O)[C@H](O)[C@H](O)CO [2DG, 2-deoxy-glucose]
[2]
  glycolytic flux: decreased the glycolytic flux in Y4+SIRT2 KD to the level of Y4 only without 2DG
hDFs
  generation of iPSC-like colonies: completely blocked

## CCCCCCCCCCCCCC(=S)NCCCC[C@H](NC(=O)OCc1ccccc1)C(=O)Nc1ccccc1 [Thiomyristoyl]
SIRT3; at 200 μM
  inhibition of SIRT3: does not inhibit SIRT3 even at 200 μM

## pre-miR-200c-5p: precursor miRNA oligomer of miR-200c-5p, CGUCUUACCCAGCAGUGUUUGG (SEQ ID NO: 1) (further chemistry not given here; listed as Homo sapiens)
SIRT2 [3]
  SIRT2 expression (mRNA and protein): significantly decreased
[4]
  reporter expression of both MREs: significantly decreased

## N#C/C(=C\c1ccc(-c2cc(Cl)ccc2Cl)o1)C(=O)Nc1cccc2ncccc12 [AGK2]
SIRT1; at 10-fold higher levels than SIRT2 IC50
  effect on SIRT1: minimally affects

## O=C(Nc1ccccc1-c1cn2c(CN3CCNCC3)csc2n1)c1cnc2ccccc2n1 [SRT1720]
SIRT1; cell-free assay, read-out: EC50 (SIRT1 activator)
  EC50: 0.16 µM
SIRT2 [5]
  fold less potent for SIRT2: > 230 fold
SIRT3; relative to SIRT1
  fold less potent for SIRT3: > 230 fold
